# Assays:
# [1] = tested on: LPS-induced PGE2 release; experiment: Ex vivo LPS-induced PGE2 release in whole blood, single ascending oral doses (Example 1, Part 1a); set-up: species or system human; conditions: for EAUC0-24 h, Difference in LS mean versus placebo / EAUC0-24 h, LS mean / EAUC0-336 h, Difference in LS mean versus placebo / EAUC0-336 h, LS mean / ETmax (time to reach maximum effect), Median / ETmax, Median difference versus placebo / Epeak (maximum % inhibition), LS mean / Epeak, Difference in LS mean versus placebo: fasted healthy subjects
# Description: In Part 1a, single doses of Compound I of 10 mg (Group A), 30 mg (Group B), 100 mg (Group C), 250 mg (Group D), 500 mg (Group E) and 1000 mg (Group F) were administered after fasting. In each dose group, 6 subjects received Compound I and 2 subjects received placebo.
# (§1) In Parts 1a and 3, whole blood samples were incubated and analyzed for lipopolysaccharide (LPS)-induced prostaglandin PGE2 release. In Part 3, urine samples were collected for analysis of prostanoid metabolites.
# (§2) Summary statistics were presented for the PK, pharmacodynamic (PD) and safety data, as appropriate. PK parameters following single oral doses of Compound I were determined from the plasma concentrations of Compound I using non-compartmental procedures in WinNonlin Dose proportionality was assessed using a power model, with tmax analyzed using the Kruskal-Wallis test. The effect of food on PK was assessed at the 100 and 250 mg doses using a mixed effects model. The effect of age on PK was assessed for elderly (>65 years) versus non-elderly (<65 years) at the 250 mg dose level in Parts 1a and 2, using an analysis of variance (ANOVA) with age as a fixed effect. For PD analyses, percent decrease of ex vivo LPS-induced PGE2 release was calculated. For Part 3, urinary excretion of prostanoid metabolites was also evaluated. The data are presented as absolute, as well as creatinine normalized urinary biomarker amounts, along percent change from baseline over a definite time interval. The percent change from baseline in urinary biomarkers was assessed using an analysis of covariance (ANCOVA) model
# (§3) Percent change in ex vivo LPS-induced PGE2 release in whole blood is the pharmacodynamic (PD) biomarker. The PGE2 levels in whole blood were estimated using the homogeneous time-resolved fluorescence method.
# (§4) Concentrations below the limit of quantification were treated as ½ the lower limit of quantification for calculation.
# Time points where unstimulated PGE2 concentration was more than 3 times greater than the mean unstimulated PGE2 and equal to or greater than ½ baseline value for an individual subject were not included in the calculation of percent inhibition. If pre-dose LPS-induced PGE2 was less than unstimulated PGE2, the value was not used for calculation of percent inhibition.
# [2] = tested on: LPS-induced PGE2 release; experiment: Ex vivo LPS-induced PGE2 release in whole blood, single dose crossover versus celecoxib (Example 1, Part 3); set-up: species or system human
# Description: Part 2 was a single-dose, double-blind study in a single cohort of elderly subjects. Part 3 was an open-label, randomized, 2-period, single-dose, crossover study to compare effects of the highest tolerated Compound I dose and celecoxib on prostanoid metabolism in healthy adult subjects.
# In Part 3, Compound I was administered at a dose of 1000 mg after fasting. All subjects received Compound I and all subjects received 400 mg celecoxib in a cross-over study design.
# as §1, §2, §3, §4
# Time points where unstimulated prostaglandin E2 (PGE2) concentration was more than 3 times greater than the mean unstimulated PGE2 and equal to or greater than ½ baseline value for an individual subject were not included in the calculation of % inhibition.
# [3] = Compound I 1000 mg versus celecoxib 400 mg, single oral doses, fasted
# [4] = single oral dose 1000 mg, fasted healthy subjects
smiles,measurement,setting,value
"CC(C)(C)C(=O)NCc1ccc(Cl)c(-c2nn(-c3ccc(C(F)(F)F)cc3)c(=O)[nH]2)c1 [Compound I, N-(4-chloro-3-(5-oxo-1-(4-(trifluoromethyl)phenyl)-4,5-dihydro-1H-1,2,4-triazol-3-yl)benzyl)pivalamide]",persistence of inhibition,[1]; 1000 mg single dose,still apparent at 336 hours
same,time for which near maximal inhibition was retained,[1]; 250 and 500 mg single doses,at least 168 hours
same,time for which reduction in PGE2 release was apparent,"[1]; lower doses, post-dose",approximately 24 hours
same,"EAUC0-24 h, Difference in LS mean versus placebo",[1]; single oral dose 10 mg,956 % · h
same,"EAUC0-24 h, LS mean",[1]; single oral dose 10 mg,898 % · h
same,"EAUC0-336 h, Difference in LS mean versus placebo",[1]; single oral dose 10 mg,−5321 % · h
same,"EAUC0-336 h, LS mean",[1]; single oral dose 10 mg,−3824 % · h
same,"ETmax (time to reach maximum effect), Median",[1]; single oral dose 10 mg,4.00 h
same,"ETmax, Median difference versus placebo",[1]; single oral dose 10 mg,-8.02 h
same,"Epeak (maximum % inhibition), LS mean",[1]; single oral dose 10 mg,77.7%
same,"Epeak, Difference in LS mean versus placebo",[1]; single oral dose 10 mg,9.90%
same,"EAUC0-24 h, Difference in LS mean versus placebo",[1]; single oral dose 30 mg,1028 % · h
same,"EAUC0-24 h, LS mean",[1]; single oral dose 30 mg,970 % · h
same,"EAUC0-336 h, Difference in LS mean versus placebo",[1]; single oral dose 30 mg,7240 % · h
same,"EAUC0-336 h, LS mean",[1]; single oral dose 30 mg,8736 % · h
same,"ETmax (time to reach maximum effect), Median",[1]; single oral dose 30 mg,3.04 h
same,"ETmax, Median difference versus placebo",[1]; single oral dose 30 mg,-8.98 h
same,"Epeak (maximum % inhibition), LS mean",[1]; single oral dose 30 mg,72.8%
same,"Epeak, Difference in LS mean versus placebo",[1]; single oral dose 30 mg,4.94%
same,"EAUC0-24 h, Difference in LS mean versus placebo",[1]; single oral dose 100 mg,1709 % · h
same,"EAUC0-24 h, LS mean",[1]; single oral dose 100 mg,1650 % · h
same,"EAUC0-336 h, Difference in LS mean versus placebo",[1]; single oral dose 100 mg,10115 % · h
same,"EAUC0-336 h, LS mean",[1]; single oral dose 100 mg,11612 % · h
same,"ETmax (time to reach maximum effect), Median",[1]; single oral dose 100 mg,7.02 h
same,"ETmax, Median difference versus placebo",[1]; single oral dose 100 mg,-7.50 h
same,"Epeak (maximum % inhibition), LS mean",[1]; single oral dose 100 mg,91.6%
same,"Epeak, Difference in LS mean versus placebo",[1]; single oral dose 100 mg,23.8%
same,"EAUC0-24 h, Difference in LS mean versus placebo",[1]; single oral dose 250 mg,1608 % · h
same,"EAUC0-24 h, LS mean",[1]; single oral dose 250 mg,1550 % · h
same,"EAUC0-336 h, Difference in LS mean versus placebo",[1]; single oral dose 250 mg,12965 % · h
same,"EAUC0-336 h, LS mean",[1]; single oral dose 250 mg,14461 % · h
same,"ETmax (time to reach maximum effect), Median",[1]; single oral dose 250 mg,2.03 h
same,"ETmax, Median difference versus placebo",[1]; single oral dose 250 mg,-9.94 h
same,"Epeak (maximum % inhibition), LS mean",[1]; single oral dose 250 mg,92.8%
same,"Epeak, Difference in LS mean versus placebo",[1]; single oral dose 250 mg,24.9%
same,"EAUC0-24 h, Difference in LS mean versus placebo",[1]; single oral dose 500 mg,1766 % · h
same,"EAUC0-24 h, LS mean",[1]; single oral dose 500 mg,1707 % · h
same,"EAUC0-336 h, Difference in LS mean versus placebo",[1]; single oral dose 500 mg,16417 % · h
same,"EAUC0-336 h, LS mean",[1]; single oral dose 500 mg,17914 % · h
same,"ETmax (time to reach maximum effect), Median",[1]; single oral dose 500 mg,12.0 h
same,"ETmax, Median difference versus placebo",[1]; single oral dose 500 mg,-0.0333 h
same,"Epeak (maximum % inhibition), LS mean",[1]; single oral dose 500 mg,87.7%
same,"Epeak, Difference in LS mean versus placebo",[1]; single oral dose 500 mg,19.9%
same,"EAUC0-24 h, Difference in LS mean versus placebo",[1]; single oral dose 1000 mg,1086 % · h
same,"EAUC0-24 h, LS mean",[1]; single oral dose 1000 mg,1028 % · h
same,"EAUC0-336 h, Difference in LS mean versus placebo",[1]; single oral dose 1000 mg,17780 % · h
same,"EAUC0-336 h, LS mean",[1]; single oral dose 1000 mg,19277 % · h
same,"ETmax (time to reach maximum effect), Median",[1]; single oral dose 1000 mg,144 h
same,"ETmax, Median difference versus placebo",[1]; single oral dose 1000 mg,112 h
same,"Epeak (maximum % inhibition), LS mean",[1]; single oral dose 1000 mg,81.8%
same,"Epeak, Difference in LS mean versus placebo",[1]; single oral dose 1000 mg,14.0%
same,inhibition of ex vivo LPS-induced PGE2 release (in words),[1]; single oral doses from 10 mg to 1000 mg,marked dose-dependent inhibition
same,"EAUC0-24 h, Difference in LS mean versus celecoxib",[2]; [3],7.89 % · h
same,"EAUC0-336 h, Difference in LS mean versus celecoxib",[2]; [3],19024 % · h
same,"ETmax, Median difference versus celecoxib",[2]; [3],6.00 h
same,"Epeak, Difference in LS mean versus celecoxib",[2]; [3],−1.87%
same,"EAUC0-24 h, LS mean",[2]; [4],1428 % · h
same,"EAUC0-336 h, LS mean",[2]; [4],8866 % · h
same,"ETmax (time to reach maximum effect), Median",[2]; [4],12.0 h
same,"Epeak (maximum % inhibition), LS mean",[2]; [4],87.2%
same,inhibition of LPS-induced PGE2 concentration,"[2]; single oral dose 1000 mg, maintained for at least 168 hours post-dose",approximately 50%
